Measured values reported in PubChem BioAssay AID2060902 (Molecular Pharmacology Branch, DTP, NCI, 2025).

Tested on: 485368-065-R3-J5-PDC spheroids with HUVEC/MSC, viability
Test: Anticancer human tumor 485368-065-R3-J5-PDC patient-derived pancreatic carcinoma cell line growth inhibition [RAS]
Conditions: for viability, T/C: stronger effect = lower value
Method in brief: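 Tumour cells grown as complex spheroids with HUVEC endothelial cells and mesenchymal stem cells, treated with RAS pathway inhibitor combinations. Each agent spans half-log steps from near clinical Cmax, or 10 microM where Cmax is unknown.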
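Further: spheroids exposed to agents for seven days before readout.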

CC(C)NCC(C(=O)N1CCN(c2ncnc3c2C(C)CC3O)CC1)c1ccc(Cl)cc1 (centres undefined) + CCn1c(-c2cc(N3CCN(C)CC3)cnc2C(C)OC)c2c3cc(ccc31)-c1csc(n1)CC(NC(=O)C1CC1C)C(=O)N1CCCC(N1)C(=O)OCC(C)(C)C2
IC50 (curve of first compound, second compound 0.000949 µM): < 31.6 nM
IC50 (curve of first compound, second compound 0.003 µM): < 31.6 nM
IC50 (curve of first compound, second compound 0.00949 µM): < 31.6 nM
IC50 (curve of first compound, second compound 0.03 µM): < 31.6 nM
IC50 (curve of first compound, second compound 0.0949 µM): < 31.6 nM
IC50 (curve of first compound, second compound 0.3 µM): < 31.6 nM
viability, T/C (second compound 0.000949 µM, first compound 0.0316 µM): 40.8%
viability, T/C (second compound 0.000949 µM, first compound 0.1 µM): 36.3%
viability, T/C (second compound 0.000949 µM, first compound 0.316 µM): 29.3%
viability, T/C (second compound 0.000949 µM, first compound 1 µM): 23.7%
viability, T/C (second compound 0.000949 µM, first compound 3.16 µM): 18.2%
viability, T/C (second compound 0.000949 µM, first compound 10 µM): 16.4%
viability, T/C (second compound 0.003 µM, first compound 0.0316 µM): 22.7%
viability, T/C (second compound 0.003 µM, first compound 0.1 µM): 21.8%
viability, T/C (second compound 0.003 µM, first compound 0.316 µM): 17.9%
viability, T/C (second compound 0.003 µM, first compound 1 µM): 14.6%
viability, T/C (second compound 0.003 µM, first compound 3.16 µM): 11.9%
viability, T/C (second compound 0.003 µM, first compound 10 µM): 8.84%
viability, T/C (second compound 0.00949 µM, first compound 0.0316 µM): 15.5%
viability, T/C (second compound 0.00949 µM, first compound 0.1 µM): 16.6%
viability, T/C (second compound 0.00949 µM, first compound 0.316 µM): 15.6%
viability, T/C (second compound 0.00949 µM, first compound 1 µM): 14%
viability, T/C (second compound 0.00949 µM, first compound 3.16 µM): 10.2%
viability, T/C (second compound 0.00949 µM, first compound 10 µM): 7.3%
viability, T/C (second compound 0.03 µM, first compound 0.0316 µM): 11.7%
viability, T/C (second compound 0.03 µM, first compound 0.1 µM): 13.6%
viability, T/C (second compound 0.03 µM, first compound 0.316 µM): 12.6%
viability, T/C (second compound 0.03 µM, first compound 1 µM): 10.5%
viability, T/C (second compound 0.03 µM, first compound 3.16 µM): 7.29%
viability, T/C (second compound 0.03 µM, first compound 10 µM): 6.75%
viability, T/C (second compound 0.0949 µM, first compound 0.0316 µM): 10.1%
viability, T/C (second compound 0.0949 µM, first compound 0.1 µM): 9.26%
viability, T/C (second compound 0.0949 µM, first compound 0.316 µM): 7.76%
viability, T/C (second compound 0.0949 µM, first compound 1 µM): 7.82%
viability, T/C (second compound 0.0949 µM, first compound 3.16 µM): 7.22%
viability, T/C (second compound 0.0949 µM, first compound 10 µM): 6.12%
viability, T/C (second compound 0.3 µM, first compound 0.0316 µM): 8.98%
viability, T/C (second compound 0.3 µM, first compound 0.1 µM): 7.69%
viability, T/C (second compound 0.3 µM, first compound 0.316 µM): 8.06%
viability, T/C (second compound 0.3 µM, first compound 1 µM): 7.28%
viability, T/C (second compound 0.3 µM, first compound 3.16 µM): 6.22%
viability, T/C (second compound 0.3 µM, first compound 10 µM): 5.13%

CCn1c(-c2cccnc2C(C)OC)c2c3cc(ccc31)N1CCOC(CC(NC(=O)C(C(C)C)N(C)C(=O)C3(F)CCN(C(=O)C#CC(C)(C)N(C)C)CC3)C(=O)N3CCCC(N3)C(=O)OCC(C)(C)C2)C1 (centres undefined)
viability, T/C (compound 0.000949 µM): 102% [middle of 8 runs]
viability, T/C (compound 0.003 µM): 103% [middle of 8 runs]
viability, T/C (compound 0.00949 µM): 102% [middle of 8 runs]
viability, T/C (compound 0.03 µM): 97.4% [middle of 8 runs]
viability, T/C (compound 0.0949 µM): 98% [middle of 8 runs]
viability, T/C (compound 0.3 µM): 96.9% [middle of 8 runs]
IC50 (compound alone, run of 07/09/2024): > 300 nM
